For 25 compounds, IC50 results are on record in patent US10370343B2, “[6,6] Fused bicyclic HDAC8 inhibitors” (FORMA Therapeutics, Inc., priority 2015, dated 2019).

This assay concerns the target T1, Recombinant N-terminal GST tag full-length human HDAC8 (Homo sapiens, UniProt Q9BY41).
T1 construct: Recombinant N-terminal GST tag full-length human HDAC8; purchased SignalChem H90-30G-1000; host or cells: baculovirus in Sf9 insect cells
T1 sequence (Q9BY41 1-377): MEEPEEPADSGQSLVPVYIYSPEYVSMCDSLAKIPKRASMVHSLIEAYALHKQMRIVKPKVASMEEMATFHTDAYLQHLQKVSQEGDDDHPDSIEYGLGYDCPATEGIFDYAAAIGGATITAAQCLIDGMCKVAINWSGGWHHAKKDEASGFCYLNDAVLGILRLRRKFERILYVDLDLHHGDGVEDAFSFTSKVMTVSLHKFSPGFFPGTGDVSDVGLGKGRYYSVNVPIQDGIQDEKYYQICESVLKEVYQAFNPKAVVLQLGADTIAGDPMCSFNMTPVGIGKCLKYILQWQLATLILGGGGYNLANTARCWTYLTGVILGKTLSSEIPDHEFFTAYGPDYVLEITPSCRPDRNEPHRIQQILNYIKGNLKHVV
The assay can be described thus: HDAC8 probe binding assay, time resolved fluorescence (TRF) format. As to conditions: compounds grouped by IC50 range (Table 2). The method in brief: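 Probe-binding TRF assay using full-length N-GST human HDAC8 expressed in baculovirus-infected Sf9 cells, incubated 16 h at room temperature and read at 340 nm excitation, 485/535 nm emission. Percent inhibition was normalised to no-enzyme and DMSO controls. IC50 was obtained by 4-parameter logistic fit.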

Molecules are shown by their SMILES.

As for `C[C@@H](c1ccccc1)N1C(=O)C(C)(C)Oc2ccc(C(=O)NO)cc21` [Compound I-303, (S)-N-hydroxy-2,2-dimethyl-3-oxo-4-(1-phenylethyl)-3,4-dihydro-2H-benzo[b][1,4]oxazine-6-carboxamide], the IC50 fell in the range of 0.025 to 0.1 µM.
For `CC1(C)Oc2ccc(C(=O)NO)cc2N(Cc2ccc(C(F)(F)F)cc2)C1=O` [Compound I-305, N-hydroxy-2,2-dimethyl-3-oxo-4-(4-(trifluoromethyl)benzyl)-3,4-dihydro-2H-benzo[b][1,4]oxazine-6-carboxamide], the IC50 is 0.025 to 0.1 µM.
Then `CC1(C)Oc2ccc(C(=O)NO)cc2N(Cc2ccc(-c3ccccc3)cc2)C1=O` [Compound I-306, 4-([1,1′-biphenyl]-4-ylmethyl)-N-hydroxy-2,2-dimethyl-3-oxo-3,4-dihydro-2H-benzo[b][1,4]oxazine-6-carboxamide], with 0.025 to 0.1 µM; and `CC1(C)Oc2ccc(C(=O)NO)cc2N(Cc2nc(-c3ccccc3)sc2Cl)C1=O` [Compound I-308, 4-((5-chloro-2-phenylthiazol-4-yl)methyl)-N-hydroxy-2,2-dimethyl-3-oxo-3,4-dihydro-2H-benzo[b][1,4]oxazine-6-carboxamide], with 0.025 to 0.1 µM; and `CC1(C)Oc2ccc(C(=O)NO)cc2N(Cc2nc(-c3ccccc3)sc2Cc2ccccc2)C1=O` [Compound I-309, 4-((5-benzyl-2-phenylthiazol-4-yl)methyl)-N-hydroxy-2,2-dimethyl-3-oxo-3,4-dihydro-2H-benzo[b][1,4]oxazine-6-carboxamide], with over 1 µM.
With `CC1(C)Oc2ccc(C(=O)NO)cc2N(Cc2ccc(Cl)c(Cl)c2)C1=O` [Compound I-312, 4-(3,4-dichlorobenzyl)-N-hydroxy-2,2-dimethyl-3-oxo-3,4-dihydro-2H-benzo[b][1,4]oxazine-6-carboxamide], the IC50 is 0.025 to 0.1 µM.
Then `CC1(C)Oc2ccc(C(=O)NO)cc2N(Cc2ccc3ccccc3c2)C1=O` [Compound I-317, N-hydroxy-2,2-dimethyl-4-(naphthalen-2-ylmethyl)-3-oxo-3,4-dihydro-2H-benzo[b][1,4]oxazine-6-carboxamide], with 0.025 to 0.1 µM.
Under `CC1(C)Oc2ccc(C(=O)NO)cc2N(C/C=C/c2ccccc2)C1=O` [Compound I-318, 4-cinnamyl-N-hydroxy-2,2-dimethyl-3-oxo-3,4-dihydro-2H-benzo[b][1,4]oxazine-6-carboxamide] stands at most 0.025 µM.
`CC1(C)Oc2ccc(C(=O)NO)cc2N(Cc2cccc(OC(F)(F)F)c2)C1=O` [Compound I-319, N-hydroxy-2,2-dimethyl-3-oxo-4-(3-(trifluoromethoxy)benzyl)-3,4-dihydro-2H-benzo[b][1,4]oxazine-6-carboxamide]: the IC50 lay in the range of 0.025 to 0.1 µM.
For the compound `CC1(C)Oc2ccc(C(=O)NO)cc2N(Cc2cc(-c3ccccc3)on2)C1=O` [Compound I-320, N-hydroxy-2,2-dimethyl-3-oxo-4-((5-phenylisoxazol-3-yl)methyl)-3,4-dihydro-2H-benzo[b][1,4]oxazine-6-carboxamide], the IC50 was at most 0.025 µM.
In the case of `CC1(C)Oc2ccc(C(=O)NO)cc2N(Cc2ccc(C(F)(F)F)cc2F)C1=O` [Compound I-321, 4-(2-fluoro-4-(trifluoromethyl)benzyl)-N-hydroxy-2,2-dimethyl-3-oxo-3,4-dihydro-2H-benzo[b][1,4]oxazine-6-carboxamide], the IC50 was at most 0.025 µM.
Under `CC1(C)Oc2ccc(C(=O)NO)cc2N(Cc2ccc(OC(F)(F)F)cc2F)C1=O` [Compound I-322, 4-(2-fluoro-4-(trifluoromethoxy)benzyl)-N-hydroxy-2,2-dimethyl-3-oxo-3,4-dihydro-2H-benzo[b][1,4]oxazine-6-carboxamide] stands 0.025 to 0.1 µM.
Under `O=C(NO)c1ccc2c(c1)N(Cc1ccc3ccccc3c1)C(=O)CO2` [Compound I-323, N-hydroxy-4-(naphthalen-2-ylmethyl)-3-oxo-3,4-dihydro-2H-benzo[b][1,4]oxazine-6-carboxamide] stands at most 0.025 µM; under `O=C(NO)c1ccc2c(c1)N(Cc1cnc3[nH]ccc3c1)C(=O)CO2` [Compound I-324, 4-((1H-pyrrolo[2,3-b]pyridin-5-yl)methyl)-N-hydroxy-3-oxo-3,4-dihydro-2H-benzo[b][1,4]oxazine-6-carboxamide], 0.025 to 0.1 µM.
Take `Cc1nn(C)c2ncc(CN3C(=O)COc4ccc(C(=O)NO)cc43)cc12` [Compound I-325, 4-((1,3-dimethyl-1H-pyrazolo[3,4-b]pyridin-5-yl)methyl)-N-hydroxy-3-oxo-3,4-dihydro-2H-benzo[b][1,4]oxazine-6-carboxamide]: the IC50 was at most 0.025 µM.
For `Cc1cccc2nc(CN3C(=O)COc4ccc(C(=O)NO)cc43)cc(=O)n12` [Compound I-327, N-hydroxy-4-((6-methyl-4-oxo-4H-pyrido[1,2-a]pyrimidin-2-yl)methyl)-3-oxo-3,4-dihydro-2H-benzo[b][1,4]oxazine-6-carboxamide], the IC50 was 0.025 to 0.1 µM.
Regarding `CC(C)Oc1ccc(CN2C(=O)COc3ccc(C(=O)NO)cc32)cc1` [Compound I-330, N-hydroxy-4-(4-isopropoxybenzyl)-3-oxo-3,4-dihydro-2H-benzo[b][1,4]oxazine-6-carboxamide], the IC50 was at most 0.025 µM.
With `O=C(NO)c1ccc2c(c1)N(Cc1ccc(OC3CCC3)cc1)C(=O)CO2` [Compound I-331, 4-(4-cyclobutoxybenzyl)-N-hydroxy-3-oxo-3,4-dihydro-2H-benzo[b][1,4]oxazine-6-carboxamide], the IC50 was at most 0.025 µM.
Under `COc1ccc(CN2C(=O)COc3ccc(C(=O)NO)cc32)cn1` [Compound I-332, N-hydroxy-4-((6-methoxypyridin-3-yl)methyl)-3-oxo-3,4-dihydro-2H-benzo[b][1,4]oxazine-6-carboxamide] stands at most 0.025 µM; under `O=C(NO)c1ccc2c(c1)N(Cc1cnc3ccccc3c1)C(=O)CO2` [Compound I-333, N-hydroxy-3-oxo-4-(quinoIin-3-ylmethyl)-3,4-dihydro-2H-benzo[b][1,4]oxazine-6-carboxamide], at most 0.025 µM.
For `O=C(NO)c1ccc2c(c1)N(Cc1cc3ccccc3cn1)C(=O)CO2` [Compound I-334, N-hydroxy-4-(isoquinolin-3-ylmethyl)-3-oxo-3,4-dihydro-2H-benzo[b][1,4]oxazine-6-carboxamide], the IC50 was at most 0.025 µM.
`O=C(NO)c1ccc2c(c1)N(Cc1ccc3cccnc3c1)C(=O)CO2` [Compound I-335, N-hydroxy-3-oxo-4-(quinolin-ylmethyl)-3,4-dihydro-2H-benzo[b][1,4]oxazine-6-carboxamide]: the IC50 was at most 0.025 µM.
Then `O=C(NO)c1ccc2c(c1)N(Cc1ccc3cnccc3c1)C(=O)CO2` [Compound I-336, N-hydroxy-4-(isoquinolin-6-ylmethyl)-3-oxo-3,4-dihydro-2H-benzo[b][1,4]oxazine-6-carboxamide], with at most 0.025 µM; and `O=C(NO)c1ccc2c(c1)N(Cc1ccc3ccncc3c1)C(=O)CO2` [Compound I-337, N-hydroxy-4-(isoquinolin-7-ylmethyl)-3-oxo-3,4-dihydro-2H-benzo[b][1,4]oxazine-6-carboxamide], with at most 0.025 µM; and `O=C(NO)c1ccc2c(c1)N(Cc1ccn3ccnc3c1)C(=O)CO2` [Compound I-338, N-hydroxy-4-(imidazo[1,2-a]pyridin-7-ylmethyl)-3-oxo-3,4-dihydro-2H-benzo[b][1,4]oxazine-6-carboxamide], with at most 0.025 µM.
